Test results published in publication PMC8286840, “Identifying SARS-CoV-2 antiviral compounds by screening for small molecule inhibitors of Nsp3 papain-like protease” (Biochemical Journal, 2021).
pEC50, pIC50: −log10 of the molar value. Several values for one entry are separate records, joined by “and”; a condition that tells them apart may be missing. Equal values may be shown once. Entries after “also recorded” stand apart in the source; their conditions may differ. Read-outs that look alike come from different tables or passages of the source. Where no end group is shown, it is not given here.

Key:
[1] = target: T1, SARS-CoV-2 PLpro (nsp3 1564–1878) (Severe acute respiratory syndrome coronavirus 2, UniProt P0DTD1); assay: biochemical; type: biochemical; settings: for Normalized activity High (3.75 µM) / Normalized activity Low (1.25µM): normalized to control without compound; for pIC50: fluorescent-based assay; for inhibition at 1.25 µM: read-out: Inhibition (%) 1.25 µM; for inhibition at 3.75 µM: read-out: Inhibition (%) 3.75 µM
[2] = target: T1, SARS-CoV-2 PLpro (nsp3 1564–1878); assay: biochemical; settings: read-out: % of control remaining
[3] = target: T1, SARS-CoV-2 PLpro (nsp3 1564–1878); assay: biochemical; settings: read-out: % of control remaining; remark: listed apart in the source
[4] = target: T1, SARS-CoV-2 PLpro (nsp3 1564–1878); assay: biochemical; parameters: FRET-quenched peptide (Pro3) cleavage by PLpro, 10 min pre-incubation, slope over 20 min, normalised to no-compound control; settings: high concentration screen, read-out: % of control remaining
SARS-CoV-2 PLpro [5] = target: T2, SARS-CoV-2 PLpro (Severe acute respiratory syndrome coronavirus 2, UniProt P0DTD1); type: biochemical; settings: 3.75 µM and 10 µM compound, 0.5 µM enzyme, 5 h RT
3CLpro (nsp5) = 3CLpro (nsp5) (Severe acute respiratory syndrome coronavirus 2, UniProt P0DTD1); type: biochemical, SARS-CoV-2
SARS-CoV-2 = assay: microbe, parasite or virus in culture; type: cell-based
[6] = target: T1, SARS-CoV-2 PLpro (nsp3 1564–1878); assay: biochemical; parameters: FRET-quenched peptide (Pro3) cleavage by PLpro, 10 min pre-incubation, slope over 20 min, normalised to no-compound control; settings: low concentration screen, read-out: % of control remaining
PLpro from SARS-CoV-1 = settings: cited from earlier work
SARS-CoV-2 PLpro [7] = target: T2, SARS-CoV-2 PLpro; type: biochemical; settings: 10 µM inhibitor, 50 nM PLpro, 1 µM substrate, 1 h 25°C
SARS-CoV-2 PLpro [8] = target: T2, SARS-CoV-2 PLpro; type: biochemical; settings: 10 µM inhibitor, 50 nM PLpro, 1 µM substrate, 1 h 25°C; remark: listed apart in the source
[9] = screen, 1.25 µM compound, 1.75 µM enzyme, 20 µM substrate
[10] = screen, 1.25 µM compound, number after the slash is the control without compound
[11] = screen, 3.75 µM compound, 1.75 µM enzyme, 20 µM substrate
[12] = screen, 3.75 µM compound, number after the slash is the control without compound
[13] = Severe acute respiratory syndrome coronavirus 2, Vero C1008, VERO E6 cells, compound alone, read-out: EC50 viral proliferation

Molecule: CC[C@@H]1Cc2cc(O)ccc2C2=C1c1ccc(O)cc1C[C@H]2CC (relative stereo) [(R,R)-cis-Diethyl tetrahydro-2,8-chrysenediol]
- Z score ([1]; screen, Table S1): -14.155
- Normalized activity High (3.75 µM) ([1]; screen, Table S1): 0
- Normalized activity Low (1.25µM) ([1]; screen, Table S1): 0.8033

Molecule: CCCn1c(=O)c2[nH]c(-c3ccc(S(=O)(=O)O)cc3)nc2n(CCC)c1=O [1,3-Dipropyl-8-p-sulfophenylxanthine]
- Z score ([1]; screen, Table S1): -14.155
- Normalized activity High (3.75 µM) ([1]; screen, Table S1): 0
- Normalized activity Low (1.25µM) ([1]; screen, Table S1): 0.885

Molecule: Cn1c(=O)c2[nH]c(-c3ccc(S(=O)(=O)O)cc3)nc2n(C)c1=O [8-(p-Sulfophenyl)theophylline]
- Z score ([1]; screen, Table S1): -14.155
- Normalized activity High (3.75 µM) ([1]; screen, Table S1): 0
- Normalized activity Low (1.25µM) ([1]; screen, Table S1): 0.9534

Molecule: C[N+]1(C)CCc2cc3c(cc2[C@H]1[C@@H]1OC(=O)c2c1ccc1c2OCO1)OCO3 [(-)-Bicuculline methbromide, 1(S), 9(R)]
- remaining activity at 3.75 µM [2]: 103%
- remaining activity at 1.25 µM [3]: 100%

Molecule: Cc1ccc(NC2=CC(=O)c3sc(C)nc3C2=O)cc1 [Cdk4 Inhibitor III]
- Cytotoxicity (VERO E6 cells): cytotoxic in the low micromolar range
- remaining activity at 3.75 µM ([4]; Well no.=2408): 61.4%
- Inhibition of PLpro cleavage of the substrate (gel-based) (SARS-CoV-2 PLpro [5]): show inhibition; also recorded: strongly inhibited
- Inhibition of 3CLpro activity (gel-based) (3CLpro (nsp5); 3 and 10 µM compound): did not inhibit
- pIC50 [1]: 6.41
- Z score ([1]; screen hits, Table 1): −5.34
- Inhibition (%) 1.25 µM [1, 9]: 19%
- slope value (of slope value/control) 1.25 µM [1, 10]: 367
- Inhibition (%) 3.75 µM [1, 11]: 39%
- slope value (of slope value/control) 3.75 µM [1, 12]: 302
- pEC50 (SARS-CoV-2; VERO E6 cells, compound alone, read-out: EC50 viral proliferation): 5.47
- remaining activity at 1.25 µM ([6]; Well no.=2408): 81.1%

Molecule: C[C@H]1COC2=C1C(=O)C(=O)c1c2ccc2c1CCCC2(C)C [Cryptotanshinone, cryptotanshinone]
- remaining activity at 3.75 µM ([4]; Well no.=3557): 103%
- Inhibition of PLpro cleavage of the substrate (gel-based) (SARS-CoV-2 PLpro [5]): show inhibition; also recorded: inhibited cleavage, but only at the higher concentration
- Inhibition of 3CLpro activity (gel-based) (3CLpro (nsp5); 3 and 10 µM compound): did not inhibit
- Inhibition of SARS-CoV-1 PLpro (PLpro from SARS-CoV-1): better inhibitors of this enzyme than dihydrotanshinone I
- pEC50 (SARS-CoV-2; [13]): 3.65
- Concentration below which viral growth was not inhibited (SARS-CoV-2; VERO E6 cells): ≥ 200 µM
- remaining activity at 1.25 µM ([6]; Well no.=3557): 100%

Molecule: O=C1c2ccccc2-c2nc3nnnn3nc21 [PDK1/Akt/Flt Dual Pathway Inhibitor]
- remaining activity at 3.75 µM ([4]; Well no.=2319): -2.62%
- Inhibition of PLpro cleavage of the substrate (gel-based) (SARS-CoV-2 PLpro [5]): show inhibition; also recorded: strongly inhibited
- pIC50 [1]: 6.58
- pIC50 ([1]; listed as PDK/Akt/Flt dual pathway inhibitor): 6.59
- Z score ([1]; screen hits, Table 1): −14.53
- Inhibition (%) 1.25 µM [1, 9]: 89%
- slope value (of slope value/control) 1.25 µM [1, 10]: 50
- Inhibition (%) 3.75 µM [1, 11]: 100%
- slope value (of slope value/control) 3.75 µM [1, 12]: 0
- Z score ([1]; screen, Table S1): -14.531
- Normalized activity High (3.75 µM) ([1]; screen, Table S1): -0.02621
- Normalized activity Low (1.25µM) ([1]; screen, Table S1): 0.111
- remaining activity at 1.25 µM ([6]; Well no.=2319): 11.1%

Molecule: C=C1C(=O)O[C@@H]2[C@H]3O[C@]3(C)CC/C=C(\C)CC[C@@H]12 [Parthenolide]
- remaining activity at 3.75 µM [2]: 97.3%
- remaining activity at 1.25 µM [3]: 96.7%

Molecule: O=C(O)c1cccc(O)c1O [Pyrocatechuic acid]
- remaining activity at 3.75 µM ([4]; Well no.=6595): 51%
- Inhibition of PLpro cleavage of the substrate (gel-based) (SARS-CoV-2 PLpro [5]): did not inhibit
- Z score ([1]; screen hits, Table 1): −6.846
- Inhibition (%) 1.25 µM [1, 9]: 0%
- slope value (of slope value/control) 1.25 µM [1, 10]: 453
- Inhibition (%) 3.75 µM [1, 11]: 49%
- slope value (of slope value/control) 3.75 µM [1, 12]: 226
- remaining activity at 1.25 µM ([6]; Well no.=6595): 103%

Molecule: Cc1cc2nc3c(=O)[nH]c(=O)nc-3n(C)c2cc1C=O [Ro 08-2750, 2,3,4,10-Tetrahydro-7,10-dimethyl-2,4-dioxobenzo[g]pteridine-8-carboxaldehyde]
- Cytotoxicity (VERO E6 cells): some cell toxicity at higher concentrations
- Inhibition of K48-linked Ub3 cleavage (DUB activity) (SARS-CoV-2 PLpro [7]): moderate inhibition; also recorded: moderately
- Inhibition of pro-ISG15 cleavage (deISGylating activity) (SARS-CoV-2 PLpro [8]): moderate inhibition
- Inhibition of PLpro cleavage of the substrate (gel-based) (SARS-CoV-2 PLpro [5]): show inhibition; also recorded: strongly inhibited
- Inhibition of 3CLpro activity (gel-based) (3CLpro (nsp5); 3 and 10 µM compound): did not inhibit
- pIC50 [1]: 6.28 and 6.27
- Z score ([1]; screen hits, Table 1): −5.79
- inhibition at 1.25 µM [1, 9]: 19%
- slope value (of slope value/control) 1.25 µM [1, 10]: 366
- inhibition at 3.75 µM [1, 11]: 42%
- slope value (of slope value/control) 3.75 µM [1, 12]: 287
- pEC50 (SARS-CoV-2; [13]): 4.70
- pEC50 (SARS-CoV-2; Severe acute respiratory syndrome coronavirus 2, Vero C1008, VERO E6 cells, compound plus 0.5 µM remdesivir, read-out: EC50 viral proliferation with remdesivir): 4.64

Molecule: Cc1coc2c1C(=O)C(=O)c1c-2ccc2c1CCCC2(C)C [Tanshinone IIA, tanshinone IIA]
- remaining activity at 3.75 µM ([4]; Well no.=3178): 105%
- remaining activity at 3.75 µM ([4]; Well no.=4084): 89.9%
- Inhibition of PLpro cleavage of the substrate (gel-based) (SARS-CoV-2 PLpro [5]): inhibited cleavage, but only at the higher concentration
- Inhibition of PLpro cleavage of the substrate (gel-based) (SARS-CoV-2 PLpro [5]; listed as tanshinone IIA): show inhibition
- Inhibition of 3CLpro activity (gel-based) (3CLpro (nsp5)): did not inhibit
- Inhibition of SARS-CoV-1 PLpro (PLpro from SARS-CoV-1): better inhibitors of this enzyme than dihydrotanshinone I
- pEC50 (SARS-CoV-2; [13]): 2.94
- remaining activity at 1.25 µM ([6]; Well no.=3178): 105%
- remaining activity at 1.25 µM ([6]; Well no.=4084): 99.4%

Molecule: C[C@H](CCC(=O)O)[C@H]1CC[C@H]2[C@@H]3[C@@H](O)C[C@@H]4C[C@H](O)CC[C@]4(C)[C@H]3CC[C@]12C [Ursodiol]
- remaining activity at 3.75 µM ([4]; Well no.=8332): 90.6%
- Inhibition of PLpro cleavage of the substrate (gel-based) (SARS-CoV-2 PLpro [5]): did not inhibit
- slope value (of slope value/control) 1.25 µM [1]: 26 (324/440)
- slope value (of slope value/control) 3.75 µM [1]: 55 (187/420)
- inhibition at 1.25 µM [1]: 26%
- inhibition at 3.75 µM [1]: 55%
- Z score ([1]; screen hits, Table 1): −7.78
- remaining activity at 1.25 µM ([6]; Well no.=8332): 89.1%

Molecule: CC(C)=CC[C@@H](O)C1=CC(=O)c2c(O)ccc(O)c2C1=O [shikonin]
- Inhibition of K48-linked Ub3 cleavage (DUB activity) (SARS-CoV-2 PLpro [7]): did not inhibit and not
- remaining activity at 3.75 µM ([4]; Well no.=3172): 82.5%
- remaining activity at 3.75 µM ([4]; Well no.=6398): 92.6%
- Inhibition of pro-ISG15 cleavage (deISGylating activity) (SARS-CoV-2 PLpro [8]): did not inhibit
- remaining activity at 1.25 µM ([6]; Well no.=3172): 86.4%
- remaining activity at 1.25 µM ([6]; Well no.=6398): 96.8%

Molecule: CCCCC/C=C\C/C=C\C/C=C\CCCCC(=O)O [γ-Linolenic acid (18:3 n-6)]
- remaining activity at 3.75 µM ([4]; Well no.=4307): 100%
- remaining activity at 1.25 µM ([6]; Well no.=4307): 95%

Molecule: Ac-LKKTETQ [TB500]
- remaining activity at 3.75 µM ([4]; Well no.=7646): 90.2%
- remaining activity at 1.25 µM ([6]; Well no.=7646): 92.9%

Molecule: DRVYVHPF [Angiotensin II 5-valine]
- remaining activity at 3.75 µM ([4]; Well no.=7899): 97.5%
- remaining activity at 3.75 µM ([4]; Well no.=7986): 89.7%
- remaining activity at 1.25 µM ([6]; Well no.=7899): 98.8%
- remaining activity at 1.25 µM ([6]; Well no.=7986): 90.3%

Molecule: KIPYIL [Neuromedin N]
- remaining activity at 3.75 µM ([4]; Well no.=8061): 90.1%
- remaining activity at 3.75 µM ([4]; Well no.=8502): 102%
- remaining activity at 1.25 µM ([6]; Well no.=8061): 91.8%
- remaining activity at 1.25 µM ([6]; Well no.=8502): 105%

Molecule: RPPGFSPFR [Bradykinin]
- remaining activity at 3.75 µM ([4]; Well no.=8439): 95.2%
- remaining activity at 1.25 µM ([6]; Well no.=8439): 98.7%
